Measured values published in the supplement of paper PMC11061612.

What was measured:
Test in all cases: combination Emax (second highest fraction inhibited in the dose matrix, 72 h); higher = more inhibition; extreme values may be limits of the assay
GAMG (Glioblastoma) = system: GAMG (Glioblastoma)
Procedure, shortened: (§1)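 Cell lines in DMEM/F12 or RPMI with 10% FBS were plated in 1536-well plates, held 24 hours at 37°C, 5% CO2, then given two-drug dose matrices for 72 hours (DMSO typically 0.2%). Viability was read by CellTiter-Glo 2.0 luminescence and scaled as inhibition from 0 (vehicle wells) to 1 (blank wells). Combination Emax is the second-highest inhibition in the matrix; Bliss excess is observed combination effect minus expected EA + EB − EA·EB, EA and EB being single-agent effects.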

[1] = system: LNZTA3WT4 (Low Grade Glioma)
Procedure, shortened: as §1

[2] = system: BE-13 (T-Lymphoblastic Leukemia)
Procedure, shortened: as §1

[3] = system: KYAE-1 (Esophageal Adenocarcinoma)
Procedure, shortened: as §1

[4] = system: ALL-PO (B-Lymphoblastic Leukemia)
Procedure, shortened: as §1

[5] = system: KMRC-20 (Kidney Carcinoma)
Procedure, shortened: as §1

[6] = system: HH (T-Cell Non-Hodgkin's Lymphoma)
Procedure, shortened: as §1

[7] = system: LCLC-97TM1 (Non-Small Cell Lung Carcinoma)
Procedure, shortened: as §1

BE2-M17 (Neuroblastoma) = system: BE2-M17 (Neuroblastoma)
Procedure, shortened: as §1

EW-11 (Ewing's Sarcoma) = system: EW-11 (Ewing's Sarcoma)
Procedure, shortened: as §1

[8] = system: OVCAR-5 (Ovarian Carcinoma)
Procedure, shortened: as §1

[9] = system: YAPC (Pancreatic Carcinoma)
Procedure, shortened: as §1

[10] = system: MHH-CALL-2 (B-Lymphoblastic Leukemia)
Procedure, shortened: as §1

[11] = system: SNU-16 (Gastric Carcinoma)
Procedure, shortened: as §1

BPH-1 (Non-Cancerous) = system: BPH-1 (Non-Cancerous)
Procedure, shortened: as §1

[12] = system: ESS-1 (Other Solid Carcinomas)
Procedure, shortened: as §1

MPP-89 (Mesothelioma) = system: MPP-89 (Mesothelioma)
Procedure, shortened: as §1

[13] = system: TGBC1TKB (Biliary Tract Carcinoma)
Procedure, shortened: as §1

[14] = system: NUGC-4 (Gastric Carcinoma)
Procedure, shortened: as §1

[15] = system: WSU-NHL (B-Cell Non-Hodgkin's Lymphoma)
Procedure, shortened: as §1

| Structure (SMILES) | combination Emax (GAMG (Glioblastoma)) | combination Emax [1] | combination Emax [2] | combination Emax [3] | combination Emax [4] | combination Emax [5] | combination Emax [6] | combination Emax [7] | combination Emax (BE2-M17 (Neuroblastoma)) | combination Emax (EW-11 (Ewing's Sarcoma)) | combination Emax [8] | combination Emax [9] | combination Emax [10] | combination Emax [11] | combination Emax (BPH-1 (Non-Cancerous)) | combination Emax [12] | combination Emax (MPP-89 (Mesothelioma)) | combination Emax [13] | combination Emax [14] | combination Emax [15] |
| --- | --- | --- | --- | --- | --- | --- | --- | --- | --- | --- | --- | --- | --- | --- | --- | --- | --- | --- | --- | --- |
| Cc1c2c(nn1C)CSCc1cc(n(C)n1)CSc1cc(c3ccccc3c1)OCCCc1c(C(=O)O)n(C)c3c-2c(Cl)ccc13 [AZD5991] + Cn1cnc2c(F)c(Nc3ccc(Br)cc3Cl)c(C(=O)NOCCO)cc21 [Selumetinib] (first compound max 1 µM, 7x7, partner max 3 µM) | 0.299 | 0.237 | 0.449 | 0.163 | 1 | 0.196 | 0.714 | 0.694 | 0.956 | 0.76 | 0.543 | 0.209 | 1 | 0.989 | 0.604 | 0.224 | 0.193 | 0.187 | 0.616 | 0.934 |
| NC1(C(=O)N[C@@H](CCO)c2ccc(Cl)cc2)CCN(c2ncnc3[nH]ccc23)CC1 [Capivasertib] + CC(=O)c1c(C)c2cnc(Nc3ccc(N4CCNCC4)cn3)nc2n(C2CCCC2)c1=O [Palbociclib] (first compound max 10 µM, 7x7, partner max 10 µM) | 0.596 | 0.562 | 0.507 | 0.162 | 0.688 | 0.372 | 0.426 | 0.583 | 0.463 | 0.496 | 0.455 | 0.281 | 0.216 | 0.623 | 0.518 | 0.593 | 0.382 | 0.344 | 0.305 | 0.899 |
| NC1(C(=O)N[C@@H](CCO)c2ccc(Cl)cc2)CCN(c2ncnc3[nH]ccc23)CC1 [Capivasertib] + CC(C)n1c(=O)n(C)c2cnc3cc(F)c(-c4ccc(OCCCN5CCCCC5)nc4)cc3c21 [AZD1390] (first compound max 10 µM, 7x7, partner max 0.3 µM) | 0.512 | 0.372 | 0.296 | 0.109 | 0.521 | 0.336 | 0.256 | 0.392 | 0.177 | 0.511 | 0.32 | 0.223 | 0.231 | 0.225 | 0.459 | 0.46 | 0.439 | 0.358 | 0.145 | 0.882 |
| NC1(C(=O)N[C@@H](CCO)c2ccc(Cl)cc2)CCN(c2ncnc3[nH]ccc23)CC1 [Capivasertib] + CCN(CCO)CCCOc1ccc2c(Nc3cc(CC(=O)Nc4cccc(F)c4)[nH]n3)ncnc2c1 [AZD2811] (first compound max 10 µM, 7x7, partner max 1 µM) | 0.669 | 0.475 | 0.733 | 0.156 | 1 | 0.398 | 0.281 | 0.686 | 0.493 | 0.611 | 0.401 | 0.233 | 0.532 | 0.663 | 0.587 | 0.812 | 0.435 | 0.298 | 0.0827 | 0.966 |
| NC1(C(=O)N[C@@H](CCO)c2ccc(Cl)cc2)CCN(c2ncnc3[nH]ccc23)CC1 [Capivasertib] + COc1nnc2ccc(N3CCC(c4ccc(OCCN5CCN(C)C(=O)[C@H]5C)cc4)CC3)nn12 [AZD5153] (first compound max 10 µM, 7x7, partner max 1 µM) | 0.724 | 0.57 | 0.644 | 0.223 | 0.9 | 0.398 | 0.439 | 0.805 | 0.696 | 0.948 | 0.624 | 0.309 | 0.338 | 0.854 | 0.691 | 0.738 | 0.495 | 0.39 | 0.542 | 1 |
| NC1(C(=O)N[C@@H](CCO)c2ccc(Cl)cc2)CCN(c2ncnc3[nH]ccc23)CC1 [Capivasertib] + C[C@@H]1COCCN1C2=NC(=NC(=C2)C3(CC3)[S@](=N)(=O)C)C4=C5C=CNC5=NC=C4 [AZD6738] (first compound max 10 µM, 7x7, partner max 10 µM) | 0.705 | 0.79 | 0.731 | 0.165 | 0.99 | 0.647 | 0.349 | 0.873 | 0.702 | 0.753 | 0.742 | 0.334 | 0.954 | 0.973 | 0.574 | 0.959 | 0.545 | 0.559 | 0.469 | 1 |
